From patent US20240252488A1 (KOREA RESEARCH INSTITUTE OF CHEMICAL TECHNOLOGY, priority 2020, published 2024)
pKd: −log10 of the molar value.

How the values were obtained:
MLKL [1] = target: T1, MLKL (Homo sapiens, UniProt Q8NB16); experiment: MLKL degradation assay in HepG2 cell line (western blot); type: cell-based; design: endogenous in cells; host or cells: HepG2 or HaCaT; details: cell line not given; for Degradation assay (Degradation %) 1 μM: compound 1 μM; for Degradation assay (Degradation %) 10 μM: compound 10 μM
T1 sequence (Q8NB16 1-471): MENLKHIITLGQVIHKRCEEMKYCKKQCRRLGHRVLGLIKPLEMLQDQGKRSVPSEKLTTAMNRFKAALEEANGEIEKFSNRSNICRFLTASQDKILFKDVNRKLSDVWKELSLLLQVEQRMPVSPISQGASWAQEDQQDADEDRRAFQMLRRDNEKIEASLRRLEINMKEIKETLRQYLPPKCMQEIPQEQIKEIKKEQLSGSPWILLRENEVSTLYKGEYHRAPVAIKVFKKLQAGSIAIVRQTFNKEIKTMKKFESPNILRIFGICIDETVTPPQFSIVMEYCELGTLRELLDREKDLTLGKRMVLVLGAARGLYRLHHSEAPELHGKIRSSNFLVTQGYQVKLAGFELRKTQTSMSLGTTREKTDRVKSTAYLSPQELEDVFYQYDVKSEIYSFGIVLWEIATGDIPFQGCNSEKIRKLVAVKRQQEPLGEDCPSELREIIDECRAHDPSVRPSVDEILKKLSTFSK
Outline: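 HepG2 cells were exposed to compound at a final 1 or 10 μM for 20-24 hours at 37 °C, 5% CO2. RIPA lysates were normalized by BCA assay, 10-15 μg protein resolved by SDS-PAGE, and MLKL levels detected by western blot with chemiluminescence.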

MLKL [2] = target: T1, MLKL; experiment: Measurement of binding affinity with MLKL receptor (competitive binding assay, Kd); design: made in house; host or cells: HEK 293 cell line (T7 phage in E. coli BL21-derived host is also described)
Outline: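 Competition binding of kinase tagged with DNA for qPCR detection, expressed in HEK 293 cells, against immobilized ligand on beads. Final DMSO 0.9%. Kd derived from kinase amount in eluates measured by qPCR.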

FADD−/− Jurkat cells = experiment: Necroptosis inhibition assay, TNF-α-induced necroptosis (CellTiter-Glo 2.0); type: cell-based, human; details: TNF-α 15 ng/mL; for Necroptosis inhibition assay (Rescue %) 1 μM: compound 1 μM; for Necroptosis inhibition assay (Rescue %) 10 μM: compound 10 μM
Outline: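 Cells at 5.0×10^5 cells/mL were pretreated with compound (final 0.1, 1 and 10 μM) for 30 minutes at room temperature, then given TNF-α at 15 ng/mL final. After 20 to 24 hours at 37° C, 5% CO2, viability was read as ATP luminescence to calculate cytotoxicity and necroptosis inhibition rate.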

Compound	Degradation assay (Degradation %) 1 μM (MLKL [1])	Degradation assay (Degradation %) 10 μM (MLKL [1])	pKd (MLKL [2])	Necroptosis inhibition assay (Rescue %) 1 μM (FADD−/− Jurkat cells)	Necroptosis inhibition assay (Rescue %) 10 μM (FADD−/− Jurkat cells)	Necroptosis inhibition assay (Rescue %) 1 μM (FADD−/− Jurkat cells; FADD−/− Jurkat cells)	Necroptosis inhibition assay (Rescue %) 10 μM (FADD−/− Jurkat cells; FADD−/− Jurkat cells)
Nc1ncc(-c2cnn(C3CCN(C(=O)COC4CCN(c5ccc6c(c5)C(=O)N(C5CCC(=O)NC5=O)C6=O)CC4)CC3)c2)nc1C(=O)O[C@@H](C(=O)Nc1ccc(F)cc1)c1ccccc1 (stereo partly drawn) [TDH-400, (R)-2-((4-fluorophenyl)amino)-2-oxo-1-phenylethyl 3-amino-6-(1-(1-(2-((1-(2-(2,6-dioxopiperidin-3-yl)-1,3-dioxoisoindolin-5-yl)piperidin-4-yl)oxy)acetyl)piperidin-4-yl)-1H-pyrazol-4-yl)pyrazine-2-carboxylate]	82.22%	74.77%	8.36	27.80%	28.44%		
Nc1ncc(-c2cnn(C3CCN(CC4CCN(C(=O)CC5CCN(c6cccc7c6C(=O)N(C6CCC(=O)NC6=O)C7=O)CC5)CC4)CC3)c2)nc1C(=O)O[C@@H](C(=O)Nc1ccc(F)cc1)c1ccccc1 (stereo partly drawn) [TDH-204, (R)-2-((4-fluorophenyl)amino)-2-oxo-1-phenylethyl 3-amino-6-(1-(1-((1-(2-(1-(2-(2,6-dioxopiperidin-3-yl)-1,3-dioxoisoindolin-4-yl)piperidin-4-yl)acetyl)piperidin-4-yl)methyl)piperidin-4-yl)-1H-pyrazol-4-yl)pyrazine-2-carboxylate]	70%	53.96%	8.38	61.24%	38.71%		
Nc1ncc(-c2cnn(C3CCN(C(=O)CCC4CCN(C(=O)CNc5cccc6c5C(=O)N(C5CCC(=O)NC5=O)C6=O)CC4)CC3)c2)nc1C(=O)O[C@@H](C(=O)Nc1ccc(F)cc1)c1ccccc1 (stereo partly drawn) [TDH-421, (R)-2-((4-fluorophenyl)amino)-2-oxo-1-phenylethyl 3-amino-6-(1-(1-(3-(1-((2-(2,6-dioxopiperidin-3-yl)-1,3-dioxoisoindolin-4-yl)glycyl)piperidin-4-yl)propanoyl)piperidin-4-yl)-1H-pyrazol-4-yl)pyrazine-2-carboxylate]	86.78%	86.81%	8.28			37.14%	35.74%
Nc1ncc(-c2cnn(C3CCN(CC4CCN(CC5CCN(C(=O)c6ccc7c(c6)CN(C6CCC(=O)NC6=O)C7=O)CC5)CC4)CC3)c2)nc1C(=O)O[C@@H](C(=O)Nc1ccc(F)cc1)c1ccccc1 (stereo partly drawn) [TDH-550, (R)-2-((4-fluorophenyl)amino)-2-oxo-1-phenylethyl 3-amino-6-(1-(1-((1-((1-(2-(2,6-dioxopiperidin-3-yl)-1-oxoisoindoline-5-carbonyl)piperidin-4-yl)methyl)piperidin-4-yl)methyl)piperidin-4-yl)-1H-pyrazol-4-yl)pyrazine-2-carboxylate]	88.92%	86.09%	9.28			47.98%	20.62%
Nc1ncc(-c2cnn(C3CCN(CCOCCOCCNC(=O)C4CN(c5cccc6c5C(=O)N(C5CCC(=O)NC5=O)C6=O)C4)CC3)c2)nc1C(=O)O[C@@H](C(=O)Nc1ccc(F)cc1)c1ccccc1 (stereo partly drawn) [TDH-115, (R)-2-((4-fluorophenyl)amino)-2-oxo-1-phenylethyl 3-amino-6-(1-(1-(2-(2-(2-(1-(2-(2,6-dioxopiperidin-3-yl)-1,3-dioxoisoindolin-4-yl)azetidine-3-carboxamido)ethoxy)ethoxy)ethyl)piperidin-4-yl)-1H-pyrazol-4-yl)pyrazine-2-carboxylate]	10.31%	24.21%	8.20	12.42%	3.59%		
